Measured values: patent US11952610B2, “Digital microbiology” (priority 2016, dated 2024)
Values after ≈ are worked out from the molar mass of the structure shown. “Also recorded” adds a separate entry of the source. Where two headings read alike, the source gives them in different places.

Key:
[1] = system: Escherichia coli (ATCC®25922™); assay: Antimicrobial susceptibility testing in water-in-oil droplets, microscope reading; assay type: cell-based; details: for MIC: Escherichia coli
Description: (§1) (at 30° C. for the C. albicans).

[2] = system: E. coli ATCC®25922; details: cited from earlier work
[3] = system: C. albicans ATCC®24433™; assay: Antifungal susceptibility testing in water-in-oil droplets, microscope reading; assay type: cell-based, Candida albicans
Description: as §1

[4] = system: C. albicans ATCC®24433™; details: cited from earlier work
[5] = system: Penicillium hirsutum ATCC 16025; assay: Inhibition of mold growth outside the droplet aqueous phase, antifungal in oil phase; assay type: cell-based; details: 0.5 mg/L in the oil phase, 48 hours
[6] = system: Aspergillus restrictus CECT 20807; assay: as above; assay type: cell-based; details: 150 mg/L in the oil phase, 48 hours
[7] = system: MRSA ATCC 49476; assay: Droplets with labeled fibrinogen, BSA +/- cefoxitin: growth and labeling; assay type: cell-based, Staphylococcus aureus
Description: (§2) Fibrinogen (Sigma Aldrich) that binds to Staphylococcus aureus (S. aureus cells express surface proteins that promote attachment to host proteins such as fibronectin) was labeled using Kit Lynx LNK174PETR (Abd Serotec). […] After incubation at 37° C. for 3 hours, the samples were read using the ZOE™ Fluorescent Cell Imager (Bio-Rad Laboratories). The tables below show growth (visible) and labeling (fluorescence) obtained for the tested strains of MSSA and MRSA.

[8] = system: MRSA ATCC BAA 2312; assay: as above; assay type: cell-based, Staphylococcus aureus
Description: as §2

[9] = system: MSSA ATCC 29213; assay: as above; assay type: cell-based, Staphylococcus aureus
Description: as §2

[10] = system: MSSA ATCC 6538; assay: as above; assay type: cell-based, Staphylococcus aureus
Description: as §2

[11] = droplets at 37° C., read after 4 and/or 6 h
[12] = ATCC25922, droplets at 37° C., read after 4 and/or 6 h, read-out: Observed MIC
[13] = conjugate 1/200, BSA 0 + FOX 0, 3 h at 37° C.
[14] = conjugate 1/200, BSA 2.5% + FOX 0, 3 h at 37° C.
[15] = conjugate 1/200, BSA 2.5% + FOX 2 mg/L, 3 h at 37° C.
[16] = conjugate 1/200, BSA 0 + FOX 2 mg/L, 3 h at 37° C.

## Gentamycin
[1]; 0.125 mg/L, reading time 4 h
  Growth in % of droplets: ~50% of the droplets
[1]; 0.25 mg/L, reading time 4 h
  Growth in % of droplets: 30-50% of droplets
[1]; 0.5 mg/L, reading time 4 h
  Growth in % of droplets: ~30% of droplets
[1]; 0.5 mg/L, reading time 6 h
  Growth in % of droplets: 30-50% of droplets
[1]; 2 mg/L, reading time 4 h
  Growth in droplets (observation in words): No growth
[1]; 2 mg/L, reading time 6 h
  Growth in droplets (observation in words): No growth
[1]; [11]
  Observed MIC: 2 µg/mL
[2]
  Expected MIC (CLSI): 0.25 to 1 µg/mL

## CCn1cc(C(=O)O)c(=O)c2ccc(C)nc21 [Nalidixic acid]
[1]; 1 mg/L, reading time 6 h
  Growth in % of droplets: Growth in about 50% of
[1]; 2 mg/L, reading time 6 h
  Growth in droplets (observation in words): One or few small
[1]; 4 mg/L, reading time 4 h
  Growth in droplets (observation in words): One or few small
[1]; 4 mg/L, reading time 6 h
  Growth in droplets (observation in words): No growth
[1]; ATCC25922, 6 h, read-out: Observed MIC
  MIC: 4 µg/mL (≈ 17.2 µM)
[2]
  Expected MIC (CLSI): 1 to 4 µg/mL

## O=C(N[C@H](CO)[C@H](O)c1ccc([N+](=O)[O-])cc1)C(Cl)Cl [Chloramphenicol]
[1]; 0.5 mg/L, reading time 4 h
  Growth in % of droplets: 30-50% of droplets
[1]; 1 mg/L, reading time 4 h
  Growth in % of droplets: 20-30% of droplets
[1]; 1 mg/L, reading time 6 h
  Growth in % of droplets: 30-50% of droplets
[1]; 2 mg/L, reading time 4 h
  Growth in droplets (observation in words): No growth
[1]; 2 mg/L, reading time 6 h
  Growth in droplets (observation in words): Limited growth in few
[1]; 4 mg/L, reading time 4 h
  Growth in droplets (observation in words): No growth
[1]; 4 mg/L, reading time 6 h
  Growth in droplets (observation in words): No growth
[1]; 8 mg/L, reading time 4 h
  Growth in droplets (observation in words): No growth
[1]; [12]
  MIC: 2 to 4 µg/mL (≈ 6.19 to 12.4 µM)
[2]
  Expected MIC (CLSI): 2 to 8 µg/mL

## C[C@@H]1[C@H](O)[C@@H](C)/C=C/C=C/C=C/C=C/C=C/C=C/C=C/[C@H](O[C@@H]2O[C@H](C)[C@@H](O)[C@H](N)[C@@H]2O)C[C@@H]2O[C@](O)(C[C@@H](O)C[C@@H](O)[C@H](O)CC[C@@H](O)C[C@@H](O)CC(=O)O[C@H]1C)C[C@H](O)[C@H]2C(=O)O [Amphotericin B]
[3]; 0.125 mg/L, reading time 4 h
  Growth in % of droplets: 15-20% of
[3]; 0.25 mg/L, reading time 4 h
  Growth in % of droplets: 15-20% of
[3]; 0.25 mg/L, reading time 6 h
  Growth in % of droplets: 30-40% of the
[3]; 0.25 mg/L, reading time 24 h
  Growth in droplets (observation in words): Full growth
[3]; 0.5 mg/L, reading time 4 h
  Growth in % of droplets: 15-20% of
[3]; 0.5 mg/L, reading time 6 h
  Growth in % of droplets: ~30% of
[3]; 0.5 mg/L, reading time 24 h
  Growth in % of droplets: ~20% of
[3]; 1 mg/L, reading time 4 h
  Growth in droplets (observation in words): Limited
[3]; 1 mg/L, reading time 6 h
  Growth in droplets (observation in words): Limited
[3]; 1 mg/L, reading time 24 h
  Growth in droplets (observation in words): Limited
[3]; 2 mg/L, reading time 6 h
  Growth in droplets (observation in words): Limited
[3]; 2 mg/L, reading time 24 h
  Growth in droplets (observation in words): Limited
[3]; 8 mg/L, reading time 24 h
  Growth in droplets (observation in words): 1-2 cells
[3]; droplets at 30° C., read after 4, 6 (24) h
  Observed MIC: 2 to 4 µg/mL
[4]
  Expected MIC (CLSI): 0.25 to 1 µg/mL

## CCN1CCN(C(=O)N[C@@H](C(=O)N[C@@H]2C(=O)N3[C@@H]2SC(C)(C)[C@@H]3C(=O)O)c2ccccc2)C(=O)C1=O [Piperacillin]
[1]; 1 mg/L, reading time 4 h
  Growth in droplets (observation in words): Limited growth in droplets with cells forming filaments
[1]; 2 mg/L, reading time 4 h
  Growth in droplets (observation in words): No growth
[1]; [12]
  MIC: 2 µg/mL (≈ 3.86 µM)
[2]
  Expected MIC (CLSI): 1 to 4 µg/mL

## OC(Cn1cncn1)(Cn1cncn1)c1ccc(F)cc1F [Fluconazole]
[3]; 1 mg/L, reading time 6 h
  Growth in % of droplets: Growth in 15-20%
[3]; 2 mg/L, reading time 4 h
  Growth in % of droplets: Growth in 15-20%
[3]; 2 mg/L, reading time 6 h
  Growth in % of droplets: Growth in 15-20%
[3]; 4 mg/L, reading time 4 h
  Growth in % of droplets: ~15% of droplets
[3]; 4 mg/L, reading time 6 h
  Growth in % of droplets: Growth in 15-20%
[3]; 8 mg/L, reading time 4 h
  Growth in droplets (observation in words): Limited growth
[3]; 8 mg/L, reading time 6 h
  Growth in droplets (observation in words): Limited growth
[3]; 16 mg/L, reading time 4 h
  Growth in droplets (observation in words): Limited growth
[3]; 16 mg/L, reading time 6 h
  Growth in droplets (observation in words): Limited growth
[3]; 32 mg/L, reading time 4 h
  Growth in droplets (observation in words): Limited growth
[3]; 32 mg/L, reading time 6 h
  Growth in droplets (observation in words): Limited growth
[3]; 64 mg/L, reading time 4 h
  Growth in droplets (observation in words): Limited growth
[3]; 64 mg/L, reading time 6 h
  Growth in droplets (observation in words): Limited growth
[4]
  Expected MIC (CLSI): 0.25 to 1 µg/mL

## C=CCOC(Cn1ccnc1)c1ccc(Cl)cc1Cl (racemic) [Imazalil, (RS)-1-[2-(allyloxy)-2-(2,4-dichlorophenyl)ethyl]-1H-imidazole]
[5]
  Mold growth outside the aqueous phase: the hyphae spreading was inhibited and mold growth was confined within the droplet; also recorded: inhibition of mold growth outside the aqueous phase

## COc1cc(Cc2cnc(N)nc2N)cc(OC)c1OC [Trimethoprim]
[1]; 0.125 mg/L, reading time 4 h
  Growth in droplets (observation in words): Limited growth in few
[1]; 0.25 mg/L, reading time 4 h
  Growth in droplets (observation in words): Limited growth in few
[1]; 0.25 mg/L, reading time 6 h
  Growth in % of droplets: Growth in 20-30% of
[1]; 0.5 mg/L, reading time 4 h
  Growth in droplets (observation in words): One or few small
[1]; 0.5 mg/L, reading time 6 h
  Growth in droplets (observation in words): Limited growth in few
[1]; 1 mg/L, reading time 4 h
  Growth in droplets (observation in words): No growth
[1]; 1 mg/L, reading time 6 h
  Growth in droplets (observation in words): Limited growth in few
[1]; 2 mg/L, reading time 4 h
  Growth in droplets (observation in words): No growth
[1]; 2 mg/L, reading time 6 h
  Growth in droplets (observation in words): No growth (one small
[1]; ATCC25922, reading time 4 h, read-out: Observed MIC (4 h)
  MIC: 1 µg/mL (≈ 3.44 µM)
[1]; ATCC25922, reading time 6 h, read-out: Observed MIC (6 h)
  MIC: 2 µg/mL (≈ 6.89 µM)
[2]
  Expected MIC (CLSI): 0.5 to 2 µg/mL

## O=C1OC2(c3cc(I)c(O)c(I)c3Oc3c2cc(I)c(O)c3I)c2c(Cl)c(Cl)c(Cl)c(Cl)c21 [rose bengal, 4,5,6,7-tetrachloro-2′,4′,5′,7′-tetraiodofluorescein]
[6]
  Mold growth outside the aqueous phase: the hyphae spreading was inhibited and mold growth was confined within the droplet; also recorded: inhibition of mold growth outside the aqueous phase

## Colistin
[1]; 0.125 mg/L, reading time 4 h
  Growth in % of droplets: Growth in 10-20% of
[1]; 0.25 mg/L, reading time 4 h
  Growth in droplets (observation in words): Limited growth in few
[1]; 0.25 mg/L, reading time 6 h
  Growth in % of droplets: Growth in 20-30% of
[1]; 0.5 mg/L, reading time 4 h
  Growth in droplets (observation in words): Growth in 1 droplet
[1]; 1 mg/L, reading time 6 h
  Growth in droplets (observation in words): No growth
[1]; [11]
  Observed MIC: 1 µg/mL
[2]
  Expected MIC (CLSI): 0.5 to 2 µg/mL

## CN(C)[C@@H]1C(O)=C(C(N)=O)C(=O)[C@@]2(O)C(O)=C3C(=O)c4c(O)cccc4[C@@](C)(O)[C@H]3C[C@@H]12 [Tetracycline]
[1]; 0.25 mg/L, reading time 6 h
  Growth in % of droplets: Growth in 20-30% of
[1]; [12]
  MIC: 0.5 µg/mL (≈ 1.13 µM)

## Fibrinogen
[7]; [13]
  Labeling (fluorescence): Fluo +++
[7]; [14]
  Labeling (fluorescence): Fluo +++
[7]; [15]
  Labeling (fluorescence): Fluo +++
[8]; [13]
  Labeling (fluorescence): BN (+)
[8]; [16]
  Labeling (fluorescence): BN (+)
[8]; [14]
  Labeling (fluorescence): Fluo +++
[8]; [15]
  Labeling (fluorescence): Fluo +++
[9]; [13]
  Labeling (fluorescence): Fluo ++
[9]; [16]
  Labeling (fluorescence): BN (+)
[9]; [14]
  Labeling (fluorescence): Fluo +++
[9]; [15]
  Labeling (fluorescence): BN (+)
[10]; [13]
  Labeling (fluorescence): Fluo +++
[10]; [16]
  Labeling (fluorescence): BN (+)
[10]; [14]
  Labeling (fluorescence): Fluo +++
[10]; [15]
  Labeling (fluorescence): BN (+)
